The values below come from US10125123B2, “Small molecule IRE1-α inhibitors” (Cornell University, priority 2016, dated 2018).

As a reminder, the pEC50 is −log10 of the EC50, conventionally taken in molar units. A high value points to a small EC50.

pEC50: −log10 of the molar value. Some results are limits rather than exact numbers.

The target of the assay is T1, IRE1α (Homo sapiens, UniProt O75460).
T1 construct: purchased SignalChem
T1 sequence (O75460 19-977): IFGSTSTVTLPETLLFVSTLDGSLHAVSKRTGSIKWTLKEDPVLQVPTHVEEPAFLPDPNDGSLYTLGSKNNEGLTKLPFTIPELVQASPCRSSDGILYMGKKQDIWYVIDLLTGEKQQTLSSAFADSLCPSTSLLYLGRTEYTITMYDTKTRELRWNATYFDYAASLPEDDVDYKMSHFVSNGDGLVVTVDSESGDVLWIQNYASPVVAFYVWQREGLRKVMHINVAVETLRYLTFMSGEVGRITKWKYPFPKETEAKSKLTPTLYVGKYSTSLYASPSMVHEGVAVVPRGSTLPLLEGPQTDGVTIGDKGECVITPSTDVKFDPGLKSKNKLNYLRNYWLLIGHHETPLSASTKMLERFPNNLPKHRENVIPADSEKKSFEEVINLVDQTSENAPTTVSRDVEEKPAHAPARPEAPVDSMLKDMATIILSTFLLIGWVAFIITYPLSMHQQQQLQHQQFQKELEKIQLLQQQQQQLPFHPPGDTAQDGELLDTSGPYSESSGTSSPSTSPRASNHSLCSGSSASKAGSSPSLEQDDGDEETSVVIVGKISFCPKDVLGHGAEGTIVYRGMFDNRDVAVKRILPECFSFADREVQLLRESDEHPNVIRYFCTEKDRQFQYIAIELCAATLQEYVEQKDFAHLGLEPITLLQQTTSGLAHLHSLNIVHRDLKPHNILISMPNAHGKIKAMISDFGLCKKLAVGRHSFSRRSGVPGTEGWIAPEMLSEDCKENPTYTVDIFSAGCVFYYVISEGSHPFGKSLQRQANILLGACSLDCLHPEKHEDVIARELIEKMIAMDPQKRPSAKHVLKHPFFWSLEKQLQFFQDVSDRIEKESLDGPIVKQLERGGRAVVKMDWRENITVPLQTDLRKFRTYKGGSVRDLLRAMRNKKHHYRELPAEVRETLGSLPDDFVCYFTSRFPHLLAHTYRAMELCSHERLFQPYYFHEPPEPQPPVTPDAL
Briefly: In vitro FRET assay (XBP1 RNA probe cleavage by IRE1α). The settings on record: biochemical FRET assay, 2 nM IRE1α. On the procedure: In vitro FRET assay was performed to evaluate the ability of select compounds to inhibit IRE1, the results of which are summarized in the following table.
To perform the in vitro FRET assay, 1× complete assay buffer (CAB; […], 50 mM sodium citrate pH 7.15, 1 mM magnesium acetate, 0.02% Tween 20) was used to dilute SignalChem IRE1α in protein to a final concentration of 2 nM. Selected compounds were serially diluted with DMSO in a non-binding black 384-well plate for a total of 15 μl in each well. 2 μl of the serially diluted compound or DMSO control were then added to new wells containing 98 μl of 1×CAB, for a total volume of 100 μl, 10 μl of which were then transferred to wells of a new plate. 5 μl of the diluted IRE1α was then added to each well. 5 μl of a […] XBP1 RNA probe was then added to each well. Fluorescence was then read over 30 minutes in kinetic mode (485/515 nm). Two RNA probes were used, XBP1 wildtype (CAUGUCCGCAGCACAUG; SEQ ID NO: 1) which is able to be spliced by active IRE1α or XBP1 mutant (CAUGUCCCCAGCACAUG; SEQ ID NO: 2) which is unable to be spliced. Each probe contained a 5′ 6-FAM modification and a 3′ IOWA Black FQ modification. […]
Take `CN1CCN(Cc2ccc(NC(=O)Nc3nc(-c4ccc5ccncc5c4)n(C)n3)cc2C(F)(F)F)CC1` [Compound 34, 1-(5-(isoquinolin-7-yl)-1-methyl-1H-1,2,4-triazol-3-yl)-3-(4-((4-methylpiperazin-1-yl)methyl)-3-(trifluoromethyl)phenyl)urea]: the pEC50 was 4.30 to 5.30.

In turn, `Cn1nc(NC(=O)Nc2ccc(CN3CCOCC3)c(C(F)(F)F)c2)cc1-c1ccc2ccncc2c1` [Compound 39, 1-(5-(isoquinolin-7-yl)-1-methyl-1H-pyrazol-3-yl)-3-(4-(morpholinomethyl)-3-(trifluoromethyl)phenyl)urea] showed a pEC50 of under 4.00. Compound `CN1CCN(Cc2ccc(NC(=O)Nc3cc(-c4ccc5ncnc(N)c5c4)n(C)n3)cc2C(F)(F)F)CC1` [Compound 28, 1-(5-(4-aminoquinazolin-6-yl)-1-methyl-1H-pyrazol-3-yl)-3-(4-((4-methylpiperazin-1-yl)methyl)-3-(trifluoromethyl)phenyl)urea] showed a pEC50 of at least 5.30. For the compound `CN1CCN(Cc2ccc(Nc3c(Nc4cc(-c5ccc6ccncc6c5)n(C)n4)c(=O)c3=O)cc2C(F)(F)F)CC1` [Compound 73, 3-((5-(isoquinolin-7-yl)-1-methyl-1H-pyrazol-3-yl)amino)-4-((4-((4-methylpiperazin-1-yl)methyl)-3-(trifluoromethyl)phenyl)amino) cyclobut-3-ene-1,2-dione], the pEC50 was at least 5.30. For the compound `Cn1nc(Nc2c(NC3CCCC3)c(=O)c2=O)cc1-c1ccc2nc(N)ncc2c1` [Compound 76, 3-((5-(2-aminoquinazolin-6-yl)-1-methyl-1H-pyrazol-3-yl)amino)-4-(cyclopentylamino)cyclobut-3-ene-1,2-dione], the pEC50 is 4.00 to 4.30. Compound `Cc1cc2oc(-c3cnn4ccccc34)nc2cc1NC(=O)Nc1ccc(CN2CCN(C)CC2)c(C(F)(F)F)c1` [Compound 17, 1-(6-methyl-2-(pyrazolo[1,5-a]pyridin-3-yl)benzo[d]oxazol-5-yl)-3-(4-((4-methylpiperazin-1-yl)methyl)-3-(trifluoromethyl)phenyl)urea] gave a pEC50 of under 4.00.

The compound `CCN1CCN(Cc2ccc(NC(=O)Nc3cc(-c4ccc5ccncc5c4)n(C)n3)cc2C(F)(F)F)CC1` [Compound 35, 1-(4-((4-ethylpiperazin-1-yl)methyl)-3-(trifluoromethyl)phenyl)-3-(5-(isoquinolin-7-yl)-1-methyl-1H-pyrazol-3-yl)urea] showed a pEC50 of at least 5.30. `CN1CCN(Cc2ccc(NC(=O)Nc3cc(-c4ccc5ccncc5c4)n(C)n3)cc2Br)CC1` [Compound 44, 1-(3-bromo-4-((4-methylpiperazin-1-yl)methyl)phenyl)-3-(5-(isoquinolin-7-yl)-1-methyl-1H-pyrazol-3-yl)urea] had a pEC50 of 4.30 to 5.30. Compound `Cn1nc(NC(=O)c2cccc(-n3cccn3)c2)cc1-c1ccc2ccncc2c1` [Compound 20, N-(5-(isoquinolin-7-yl)-1-methyl-1H-pyrazol-3-yl)-3-(1H-pyrazol-1-yl)benzamide] had a pEC50 of under 4.00.

On to `Cc1c(NC(=O)Nc2ccc(CN3CCN(C)CC3)c(C(F)(F)F)c2)ccc2oc(-c3cnn4ccccc34)nc12` [Compound 18, 1-(4-methyl-2-(pyrazolo[1,5-a]pyridin-3-yl)benzo[d]oxazol-5 yl)-3-(4-((4-methylpiperazin-1-yl)methyl)-3-(trifluoromethyl)phenyl)urea], for which the pEC50 was under 4.00. Regarding `CSc1ccccc1NC(=O)Nc1cc(-c2ccc3ccncc3c2)n(C)n1` [Compound 68, 1-(5-(isoquinolin-7-yl)-1-methyl-1H-pyrazol-3-yl)-3-(2-(methylthio)phenyl)urea], the pEC50 is under 4.00.

`CN1CCN(Cc2ccc(NC(=O)Cc3cc(-c4ccc5ccncc5c4)n(C)n3)cc2C(F)(F)F)CC1` [Compound 31, 2-(5-(isoquinolin-7-yl)-1-methyl-1H-pyrazol-3-yl)-N-(4-((4-methylpiperazin-1-yl)methyl)-3-(trifluoromethyl)phenyl)acetamide]: the pEC50 is 4.30 to 5.30. Consider `CN1CCN(Cc2ccc(NC(=O)Nc3cc(-c4ccc5ccncc5c4)n(C)n3)cc2C(F)(F)F)CC1` [Compound 24, 1-(5-(isoquinolin-7-yl)-1-methyl-1H-pyrazol-3-yl)-3-(4-((4-methylpiperazin-1-yl)methyl)-3-(trifluoromethyl)phenyl)urea], for which the pEC50 is at least 5.30. As for `CN1CCN(Cc2ccc(NC(=O)Cc3cc(-c4ccc5cc(N)ncc5c4)n(C)n3)cc2C(F)(F)F)CC1` [Compound 32, 2-(5-(3-aminoisoquinolin-7-yl)-1-methyl-1H-pyrazol-3-yl)-N-(4-((4-methylpiperazin-1-yl)methyl)-3-(trifluoromethyl)phenyl)acetamide], the pEC50 is under 4.00. `CNS(=O)(=O)c1ccc(NC(=O)Nc2cc(-c3ccc4ccncc4c3)n(C)n2)cc1` [Compound 70, 4-(3-(5-(isoquinolin-7-yl)-1-methyl-1H-pyrazol-3-yl)ureido)-N-methylbenzenesulfonamide] showed a pEC50 of under 4.00. In the case of `CC1CCCCN1Cc1ccc(NC(=O)Nc2cc(-c3ccc4ccncc4c3)n(C)n2)cc1C(F)(F)F` (stereo not shown) [Compound 43, 1-(5-(isoquinolin-7-yl)-1-methyl-1H-pyrazol-3-yl)-3-(4-((2-methylpiperidin-1-yl)methyl)-3-(trifluoromethyl)phenyl)urea], the pEC50 is under 4.00. The compound `CN1CCN(Cc2ccc(NC(=O)Nc3cc(-c4ccnc5c4ccn5C)n(C)n3)cc2C(F)(F)F)CC1` [Compound 12, 1-(1-methyl-5-(1-methyl-1H-pyrrolo[2,3-b]pyridin-4-yl)-1H-pyrazol-3-yl)-3-(4-((4-methylpiperazin-1-yl)methyl)-3-(trifluoromethyl)phenyl)urea] gave a pEC50 of 4.30 to 5.30. As for `CN1CCN(Cc2ccc(NC(=O)Nc3n[nH]c4cc(-c5cnc(N)nc5)ccc34)cc2C(F)(F)F)CC1` [Compound 11, 1-(6-(2-aminopyrimidin-5-yl)-1H indazol-3-yl)-3-(4-((4-methylpiperazin-1-yl)methyl)-3-(trifluoromethyl)phenyl)urea], the pEC50 was 4.30 to 5.30. The compound `CN1CCN(Cc2ccc(NC(=O)Nc3cc(-c4ccc5ccncc5c4)n(C)n3)cc2)CC1` [Compound 47, 1-(5-(isoquinolin-7-yl)-1-methyl-1H-pyrazol-3-yl)-3-(4-((4-methylpiperazin-1-yl)methyl)phenyl)urea] had a pEC50 of under 4.00. Turning to `Cn1nc(NC(=O)Nc2ccc(CN3CCN(CCO)CC3)c(C(F)(F)F)c2)cc1-c1ccc2ccncc2c1` [Compound 36, 1-(4-((4-(2-hydroxyethyl)piperazin-1-yl)methyl)-3-(trifluoromethyl)phenyl)-3-(5-(isoquinolin-7-yl)-1-methyl-1H-pyrazol-3-yl)urea], the pEC50 is at least 5.30. `O=C(Nc1cccc(C(F)(F)F)c1)Nc1ccc2oc(-c3cccnc3)nc2c1` [Compound 57, 1-(2-(pyridin-3-yl)benzo[d]oxazol-5-yl)-3-(3-(trifluoromethyl)phenyl)urea] gave a pEC50 of 4.30 to 5.30. The figure for `Cn1nc(NC(=O)Nc2ccc(CN3CCCCC3)c(C(F)(F)F)c2)cc1-c1ccc2ccncc2c1` [Compound 42, 1-(5-(isoquinolin-7-yl)-1-methyl-1H-pyrazol-3-yl)-3-(4-(piperidin-1-ylmethyl)-3-(trifluoromethyl)phenyl)urea] is under 4.00. As to `CN1CCN(Cc2ccc(NC(=O)Nc3cc(-c4ccc5nc(N)nc(O)c5c4)n(C)n3)cc2C(F)(F)F)CC1` [Compound 27, 1-(5-(2-amino-4-hydroxyquinazolin-6-yl)-1-methyl-1H-pyrazol-3-yl)-3-(4-((4-methylpiperazin-1-yl)methyl)-3-(trifluoromethyl)phenyl)urea], the pEC50 is at least 5.30. With `Cc1nc(NC(=O)Nc2ccc(CN3CCN(C)CC3)c(C(F)(F)F)c2)n(C)c1-c1ccc2cc(N)ncc2c1` [Compound 50, 1-(5-(3-aminoisoquinolin-7-yl)-1,4-dimethyl-1H-imidazol-2-yl)-3-(4-((4-methylpiperazin-1-yl)methyl)-3-(trifluoromethyl)phenyl)urea], the pEC50 is 4.30 to 5.30. Consider `CN1CCN(Cc2ccc(NC(=O)Nc3cc(-c4ccc5ccncc5c4)n(C)n3)c(-c3cnn(C)c3)c2)CC1` [Compound 21, 1-(5-(isoquinolin-7-yl)-1-methyl-1H-pyrazol-3-yl)-3-(2-(1-methyl-1H-pyrazol-4-yl)-4-((4-methylpiperazin-1-yl)methyl)phenyl)urea], for which the pEC50 is 4.00 to 4.30. With `O=C(Nc1ccc(CN2CCN(Cc3ccccc3)CC2)c(C(F)(F)F)c1)Nc1ccc2oc(-c3cccnc3)nc2c1` [Compound 14, 1-(4-((4-benzylpiperazin-1-yl)methyl)-3-(trifluoromethyl)phenyl)-3-(2-(pyridin-3-yl)benzo[d]oxazol-5-yl)urea], the pEC50 is 4.00 to 4.30. `CN1CCN(Cc2ccc(NC(=O)Nc3cc(-c4ccc5ncncc5c4)n(C)n3)cc2C(F)(F)F)CC1` [Compound 22, 1-(1-methyl-5-(quinazolin-6-yl)-1H-pyrazo1-3-yl)-3-(4-((4-methylpiperazin-1-yl)methyl)-3-(trifluoromethyl)phenyl)urea] showed a pEC50 of at least 5.30.

Compound `CN1CCN(Cc2ccc(NC(=O)Nc3cc(-c4ccc5cc(N)ncc5c4)[nH]n3)cc2C(F)(F)F)CC1` [Compound 52, 1-(5-(3-aminoisoquinolin-7-yl)-1H-pyrazol-3-yl)-3-(4-((4-methylpiperazin-1-yl)methyl)-3-(trifluoromethyl)phenyl)urea] had a pEC50 of at least 5.30.
